According to US11400038B2, “Synergistic antioxidant compositions” (RODAN & FIELDS, LLC, priority 2019, dated 2022):

Columns and labels:
[1] = tested on: UVA-induced Reactive Oxygen Species in Human Dermal Fibroblasts; assay: DCFH reactive oxygen species quantification in UVA-irradiated fibroblasts (Test Method C); format: cell-based; conditions: individual antioxidant, + pro-oxidant
Method: Compositions of Ex1-Ex8 have been tested for reactive oxygen species quantification in UVA-irradiated human dermal fibroblasts. The quantification result is expressed as a percentage of the water control and determined by the Test Method C and resented in Table 6.
Adult human fibroblasts were grown in a 96 well plate in DMEM+5% FBS. At exponential growth stage, medium was replaced with PBS and cells were loaded with 10 μM DCFH-DA (2′-7′-Dichlorofluorescin diacetate). Cells were incubated for 15 minutes at 37° C., rinsed, and incubated with test materials at 1 mg/ml (0.1% w/w) for an additional 20 minutes. Following incubation, plate was irradiated at 5 mW/cm2 for 10 minutes. Measurements of DCF-originated fluorescence were taken before and after irradiation as, in the presence of free radicals, DCFH is oxidized to highly fluorescent DCF, which can be detected in living cells at ex/em 488/530 nm. Total insoluble proteins were quantified to determine effect of test materials on cell number and to standardize ROS signal to cell number using the following equation: [ΔROS signal (t10 min−t0)]\[cell number (background−corrected)]. Water was used as a negative control.

Adult human fibroblasts = assay: Phototoxicity (PHTX): cell viability pre- and post-UVA irradiation by MTT assay (Test Method B); format: cell-based; conditions: for cell metabolism versus solvent control, in words: UV-irradiation assay, individual antioxidants; for PHTX Results: phototoxicity: individual antioxidant
Method: The cell viability was measured by determining the cells metabolic activity with a MTT assay according to Test Method B, the results are presented in Table 5. An MTT assay is a colorimetric assay for assessing cell metabolic activity.
Adult human fibroblasts were grown to exponential stage in a 96-well plate in DMEM and 10% FBS in humidified atmosphere, 37° C. in 5% CO2. Prior to irradiation, half of cell culture medium was replaced with PBS, treated with 0.1% test material (diluted in double distilled water), and incubated for an additional 1 hour 45 minutes. Following incubation, half of the plate was irradiated with UVA lamp UVA-28T at 5 mW/cm2 for 12 minutes, and the other half remained covered with aluminum foil. Following irradiation, PBS with test materials was replaced by fresh cell culture medium and plate was incubated for an additional 24 hours. Cell viability was then analyzed via MTT assay to quantify metabolic activity.

Row | SMILES | DCFH Results (intracellular antioxidant): radical activity [1] | cell metabolism versus solvent control, in words (Adult human fibroblasts) | PHTX Results: phototoxicity (Adult human fibroblasts)
1 | O=C(/C=C/c1ccc(O)c(O)c1)O[C@H](Cc1ccc(O)c(O)c1)C(=O)O [Rosmarinic acid, (2R)-3-(3,4-dihydroxyphenyl)-2-{[(2E)-3-(3,4-dihydroxyphenyl)prop-2-enoyl]oxy}propanoic acid] | −52% radical | lower cell metabolism than solvent control | not phototoxic
2 | C[C@@H]1O[C@@H](OC[C@H]2O[C@@H](Oc3c(-c4ccc(O)c(O)c4)oc4cc(O)cc(O)c4c3=O)[C@H](O)[C@@H](O)[C@@H]2O)[C@H](O)[C@H](O)[C@H]1O [Rutin, 2-(3,4-dihydroxyphenyl)-5,7-dihydroxy-3-[α-L-rhamnopyranosyl-(1→6)-β-D-glucopyranosyloxy]-4H-chromen-4-one] | No Activity | lower cell metabolism than solvent control | not phototoxic
